# Laboratory results as given in US12371453B2, “Polypeptide having antibacterial activity, composition for preventing or treating sepsis comprising same, and antibacterial composition” (priority 2019, dated 2025).
# Where two headings read alike, the source gives them in different places. Ends that are not written are not given here.
# How the values were obtained:
# [1] = system: Pseudomanas aeruginosa PAO1 (ATCC 47085D-5); test: microbe, parasite or virus in culture; settings: for MIC: Pseudomonas aeruginosa; for MIC (μg/ml) 50% / MIC (μg/ml) 80%: Pseudomonas aeruginosa PAO1; for MIC (μg/ml) 50%: 50% growth inhibition; for MIC (μg/ml) 80%: 80% growth inhibition
# Method: (§1) To compare the antibacterial activity between the four commercially available antibiotics (ampicillin, gentamicin, levofloxacin and imipenem) and the allD FP13-NH2 (AcOH) peptide, an antibacterial activity test was performed to measure the minimum inhibitory concentrations (MIC50 and MIC80) for gram-negative and gram-positive standard strains (Escherichia coli DH5α, Escherichia coli K1, Acinetobacter baumannii, Pseudomonas aeruginosa, Salmonella enteritidis, Salmonella typhimurium, and Klebsiella pneumoniae).
# (§2) More specifically, 100 μL of a medium was dispensed into each well of a 96-well plate, and in the first column, an antibiotic and a peptide in 200 μL of the medium were dispensed. 1/2 serial dilution was performed from columns 1 to 11, and gram-negative and gram-positive bacteria which had been previously cultured were diluted (OD600 nm value in dilution: approximately 0.0025) and dispensed into each well. The plate was incubated in a 37° C. incubator for 4 hours, and measured at OD600 nm.
# Escherichia coli K1 = test: microbe, parasite or virus in culture; settings: for MIC: Escherichia coli
# Method: as §1, §2
# [2] = system: Klebiella pneumoniae (ATCC 13883); test: microbe, parasite or virus in culture; settings: for MIC: Klebsiella pneumoniae; for MIC (μg/ml) 50% / MIC (μg/ml) 80%: Klebsiella pneumoniae ATCC 13883; for MIC (μg/ml) 50%: 50% growth inhibition; for MIC (μg/ml) 80%: 80% growth inhibition
# Method: as §1, §2
# [3] = system: Escherichia coli DH5α (ATCC PTA-4750); test: microbe, parasite or virus in culture; settings: for MIC: Escherichia coli, 4 h
# Method: as §1, §2
# [4] = system: Acinetobacter baumannii (ATCC 19606); test: microbe, parasite or virus in culture; settings: for MIC: Acinetobacter baumannii
# Method: as §1, §2
# [5] = system: Salmonela typhimurium (ATCC 53648); test: microbe, parasite or virus in culture; settings: for MIC: Salmonella enterica
# Method: as §1, §2
# [6] = system: Salmonela enteritidis (ATCC 13076); test: microbe, parasite or virus in culture; settings: for MIC: Salmonella enterica
# Method: as §1, §2
# CR-Klebsiella pneumoniae = system: CR-Klebsiella pneumoniae
# Method: (§3) The antibacterial activity was evaluated according to an antibacterial activity test method for measuring the minimum inhibitory concentration 50 (MIC50; the minimal concentration that kills 50% of bacteria).
# as §2, with “11” for “11,”, “five types of antibiotic-resistant” for “gram-negative and gram-positive”, “bacteria (ESBL-resistant E. coli, carbapenem-resistant A. baumannii, carbapenem-resistant Klebsiella pneumoniae, carbapenem-resistant Pseudomonas aeruginosa, colistin-resistant Acinetobactor baumannii),” for “bacteria”, “cultured,” for “cultured”
# [7] = system: Colistin resistant AB (Acinetobactor baumannii)
# Method: as §3
# as §2, with “11” for “11,”, “five types of antibiotic-resistant” for “gram-negative and gram-positive”, “bacteria (ESBL-resistant E. coli, carbapenem-resistant A. baumannii, carbapenem-resistant Klebsiella pneumoniae, carbapenem-resistant Pseudomonas aeruginosa, colistin-resistant Acinetobactor baumannii),” for “bacteria”, “cultured,” for “cultured”
# ESBL (E. coli) = system: ESBL (E. coli)
# Method: as §3
# as §2, with “11” for “11,”, “five types of antibiotic-resistant” for “gram-negative and gram-positive”, “bacteria (ESBL-resistant E. coli, carbapenem-resistant A. baumannii, carbapenem-resistant Klebsiella pneumoniae, carbapenem-resistant Pseudomonas aeruginosa, colistin-resistant Acinetobactor baumannii),” for “bacteria”, “cultured,” for “cultured”
# [8] = system: Carbapenem resistant (CR)-Acinetobactor baumannii; test: organism not typed
# Method: as §3
# as §2, with “11” for “11,”, “five types of antibiotic-resistant” for “gram-negative and gram-positive”, “bacteria (ESBL-resistant E. coli, carbapenem-resistant A. baumannii, carbapenem-resistant Klebsiella pneumoniae, carbapenem-resistant Pseudomonas aeruginosa, colistin-resistant Acinetobactor baumannii),” for “bacteria”, “cultured,” for “cultured”
# [9] = LPS binding affinity by Isothermal Titration Calorimeter (ITC); design: species or system E. coli K1; settings: for Kd: peptide binding to LPS, read-out: Kd (calculated by ITC); for LPS binding affinity (in words): compared with FP1 (wild type, WT)
# Source text: FPT (ADK 44-54) is denoted by wild type (WT), and peptides in which a point mutation occurred at various sites in WT were manufactured (FP3, FP5, FP6, and FP9). To increase the interaction with LPS in a residue sequence of FP3, peptides were designed based on FP3- and LPS-binding models (FP12-NH2 and FP13-NH2), and peptides were designed by additionally introducing a non-natural amino acid and an amino acid isomer (allomeric D-type amino acid) (allD FP12-NH2, allD FP13-NH2, allD FP-13-9a, allD FP-13-9w, allD FP-13-9k, and allD FP13-NH2 (AcOH)). In addition, an N-terminus PEGylated peptide (PEG-alld FP13-NH2 (AcOH)) was additionally designed, synthesized, and provided by ANYGEN, Co. Ltd. The binding affinity between each of the provided peptides and lipopolysaccharide (LPS) was confirmed through measuring the binding affinity (Kd) using Isothermal Titration Calorimeter (ITC).
# Specifically, a method of analyzing binding affinity (Kd) between a peptide and LPS is as follows.
# Measurement was carried out using a Malvern MicroCal PEAQ-ITC cell instrument, and the following pretreatment was carried out to confirm interaction with LPS. The amount and morphology of a sample cell are 300 μL and coin-shaped, fixed-in-place, respectively; a syringe rotation rate was 1,200 rpm; and a temperature was 30° C., 35° C. or 25° C.
# Before the experiment, LPS and the peptide were previously diluted with PBS, thereby preparing 2 mM LPS and 0.2 mM peptide. 300 μL of the peptide was added into cells in the ITC instrument, which had been washed, and 40 μL of LPS was put into a syringe. After measurement conditions for ITC (temperature, number of injections) were set, the syringe was inserted into the cell, and ITC measurement was started. When the measurement was completed, analysis is performed, and the Kd values of LPS and the peptide were calculated.
# [10] = ATCC19606, read-out: MIC (μg/ml) 50%
# [11] = ATCC19606, read-out: MIC (μg/ml) 80%
# [12] = colistin resistant A. baumannii
molecule,measurement,setting,value
"C[C@@H](O)[C@H]1C(=O)N2C(C(=O)O)=C(SCCN=CN)C[C@H]12 [Imipenem, imipenem]",MIC,"[1]; PAO1, read-out: MIC (μg/ml) 50%",< 32 µg/mL
same,MIC,"[1]; PAO1, read-out: MIC (μg/ml) 80%",< 64 µg/mL
same,MIC,"Escherichia coli K1; K1, read-out: MIC (μg/ml) 50%",< 0.5 µg/mL
same,MIC,"Escherichia coli K1; K1, read-out: MIC (μg/ml) 80%",< 1 µg/mL
same,MIC,"[2]; ATCC13883, read-out: MIC (μg/ml) 50%",< 2 µg/mL
same,MIC,"[2]; ATCC13883, read-out: MIC (μg/ml) 80%",< 8 µg/mL
same,MIC,[3]; read-out: MIC (μg/ml) 50%,< 4 µg/mL
same,MIC,[3]; read-out: MIC (μg/ml) 80%,< 8 µg/mL
same,MIC,[4]; [10],< 8 µg/mL
same,MIC,[4]; [11],< 15 µg/mL
same,MIC,[5]; read-out: MIC (μg/ml) 50%,< 4 µg/mL
same,MIC,[5]; read-out: MIC (μg/ml) 80%,< 8 µg/mL
same,MIC,[6]; read-out: MIC (μg/ml) 50%,< 4 µg/mL
same,MIC,[6]; read-out: MIC (μg/ml) 80%,< 8 µg/mL
same,"MIC50, CR-Klebsiella pneumoniae",CR-Klebsiella pneumoniae; CR-K. pneumoniae,No effect
same,"MIC50, Colistin resistant AB",[7]; [12],No effect
same,"MIC50, ESBL (E. coli)",ESBL (E. coli); ESBL E. coli,No effect
same,"MIC50, Carbapenem resistant (CR)-Acinetobactor baumannii",[8]; CR-A. baumannii,No effect
"KLGVEAKRYLD [FP1(WT), reference compound]",Kd,[9],238 µM
"CC1(C)S[C@@H]2[C@H](NC(=O)[C@H](N)c3ccccc3)C(=O)N2[C@H]1C(=O)O [Ampicillin, ampicillin]",MIC (μg/ml) 50%,[1],no effect
same,MIC (μg/ml) 80%,[1],no effect
same,MIC,"Escherichia coli K1; K1, read-out: MIC (μg/ml) 50%",< 4 µg/mL
same,MIC,"Escherichia coli K1; K1, read-out: MIC (μg/ml) 80%",< 8 µg/mL
same,MIC (μg/ml) 50%,[2],no effect
same,MIC (μg/ml) 80%,[2],no effect
same,MIC,[3]; read-out: MIC (μg/ml) 50%,< 2 µg/mL
same,MIC,[3]; read-out: MIC (μg/ml) 80%,< 4 µg/mL
same,MIC,[4]; [10],< 32 µg/mL
same,MIC,[4]; [11],< 64 µg/mL
same,MIC,[5]; read-out: MIC (μg/ml) 50%,< 1 µg/mL
same,MIC,[5]; read-out: MIC (μg/ml) 80%,< 2 µg/mL
same,MIC,[6]; read-out: MIC (μg/ml) 50%,< 4 µg/mL
same,MIC,[6]; read-out: MIC (μg/ml) 80%,< 8 µg/mL
same,"MIC50, CR-Klebsiella pneumoniae",CR-Klebsiella pneumoniae; CR-K. pneumoniae,No effect
same,"MIC50, Colistin resistant AB",[7]; [12],No effect
same,"MIC50, ESBL (E. coli)",ESBL (E. coli); ESBL E. coli,No effect
same,MIC50,"[8]; read-out: MIC50, Carbapenem resistant (CR)-Acinetobactor baumannii",< 16 µg/mL
colistin [reference compound],"MIC50, CR-Klebsiella pneumoniae",CR-Klebsiella pneumoniae; CR-K. pneumoniae,<125 µg/mL
same,"MIC50, Colistin resistant AB",[7]; [12],No effect
same,"MIC50, ESBL (E. coli)",ESBL (E. coli); ESBL E. coli,<0.5 µg/mL
same,"MIC50, Carbapenem resistant (CR)-Acinetobactor baumannii",[8]; CR-A. baumannii,<1 µg/mL
gentamicin,MIC (μg/ml) 50%,[1],<0.5 µg/mL
same,MIC (μg/ml) 80%,[1],<1.0 µg/mL
same,MIC (μg/ml) 50%,"Escherichia coli K1; Escherichia coli K1, 50% growth inhibition",<0.5 µg/mL
same,MIC (μg/ml) 80%,"Escherichia coli K1; Escherichia coli K1, 80% growth inhibition",<1.0 µg/mL
same,MIC (μg/ml) 50%,[2],<0.5 µg/mL
same,MIC (μg/ml) 80%,[2],<1.0 µg/mL
same,MIC (μg/ml) 50%,"[3]; Escherichia coli DH5α, 50% growth inhibition, 4 hours",<0.5 µg/mL
same,MIC (μg/ml) 80%,"[3]; Escherichia coli DH5α, 80% growth inhibition, 4 hours",<1.0 µg/mL
same,MIC (μg/ml) 50%,"[4]; Acinetobacter baumannii ATCC 19606, 50% growth inhibition",<1.0 µg/mL
same,MIC (μg/ml) 80%,"[4]; Acinetobacter baumannii ATCC 19606, 80% growth inhibition",<2.0 µg/mL
same,MIC (μg/ml) 50%,"[5]; Salmonella typhimurium ATCC 53648, 50% growth inhibition",<0.5 µg/mL
same,MIC (μg/ml) 80%,"[5]; Salmonella typhimurium ATCC 53648, 80% growth inhibition",<1.0 µg/mL
same,MIC (μg/ml) 50%,"[6]; Salmonella enteritidis ATCC 13076, 50% growth inhibition",<0.5 µg/mL
same,MIC (μg/ml) 80%,"[6]; Salmonella enteritidis ATCC 13076, 80% growth inhibition",<1.0 µg/mL
KLRVKLRRYLR [FP13],"MIC50, CR-Klebsiella pneumoniae",CR-Klebsiella pneumoniae; CR-,<62 µg/mL
same,"MIC50, Colistin resistant AB",[7],<62 µg/mL
same,"MIC50, ESBL (E. coli)",ESBL (E. coli); ESBL,<2 µg/mL
same,"MIC50, Carbapenem resistant (CR)-Acinetobactor baumannii",[8],<16 µg/mL
KLGVEALRYLD [FP9],LPS binding affinity (in words),[9],strong LPS binding affinity
same,Kd,[9],326 µM
LRLGVELKRYLR [FP6],LPS binding affinity (in words),[9],strong LPS binding affinity
same,Kd,[9],11.1 µM
